This is an account of results in paper PMC11240878, “Synthesis, enzyme inhibition assay, and molecular modeling study of novel pyrazolines linked to 4-methylsulfonylphenyl scaffold: antitumor activity and cell cycle analysis” (RSC Advances, 2024).

SMILES strings stand for the structures.

Type in all cases: cell-based, human
Experiment [1] concerns MDA-MB-435. The experiment can be described thus: NCI single-dose GI%, melanoma. The note with it: MDA-MB-435, melanoma; 10.0 μM in one dose.
The subject of experiment [2] is A498. Put plainly: NCI single-dose GI%, renal. The note with it: 10.0 μM in one dose.
In experiment [3] the test system is TK-10. Put plainly: NCI single-dose GI%, renal. The note with it: TK-10, renal; 10.0 μM in one dose.

With `Cc1ccc(C2=NN(C(=O)c3ccc(S(C)(=O)=O)cc3)C(c3ccc(C)cc3)C2)cc1` (stereo not drawn) [Compound 18g, (3,5-Bis(4-tolyl)-4,5-dihydro-1H-pyrazol-1-yl)(4-(methylsulfonyl)phenyl)methanone], the figures for the GI% in experiment [1] and in experiment [2] were 76% and 16%, respectively.
`CS(=O)(=O)c1ccc(C(=O)N2N=C(c3ccccc3)CC2c2ccccc2O)cc1` (stereo not drawn) [Compound 18h, (5-(2-Hydroxyphenyl)-3-phenyl-4,5-dihydro-1H-pyrazol-1-yl)(4-(methylsulfonyl)phenyl)methanone] returned a GI% in experiment [3] of 25%.
